Source: patent US9409917B2, “Heterocyclic amide derivatives as P2X7 receptor antagonists” (ACTELION PHARMACEUTICALS LTD., priority 2012, dated 2016)
pIC50: −log10 of the molar value. Where two headings read alike, the source gives them in different places.

Molecular target: human recombinant P2X7 receptor (Homo sapiens (Human), UniProt Q99572)
Test: YO-PRO assay: P2X7 receptor antagonistic activity (ATP-induced YO-PRO-1 uptake, FLIPR)
Conditions: for IC50: read-out: IC50 [nM], antagonistic activities with respect to the P2X7 receptor

Chain of human recombinant P2X7 receptor (Q99572 whole entry): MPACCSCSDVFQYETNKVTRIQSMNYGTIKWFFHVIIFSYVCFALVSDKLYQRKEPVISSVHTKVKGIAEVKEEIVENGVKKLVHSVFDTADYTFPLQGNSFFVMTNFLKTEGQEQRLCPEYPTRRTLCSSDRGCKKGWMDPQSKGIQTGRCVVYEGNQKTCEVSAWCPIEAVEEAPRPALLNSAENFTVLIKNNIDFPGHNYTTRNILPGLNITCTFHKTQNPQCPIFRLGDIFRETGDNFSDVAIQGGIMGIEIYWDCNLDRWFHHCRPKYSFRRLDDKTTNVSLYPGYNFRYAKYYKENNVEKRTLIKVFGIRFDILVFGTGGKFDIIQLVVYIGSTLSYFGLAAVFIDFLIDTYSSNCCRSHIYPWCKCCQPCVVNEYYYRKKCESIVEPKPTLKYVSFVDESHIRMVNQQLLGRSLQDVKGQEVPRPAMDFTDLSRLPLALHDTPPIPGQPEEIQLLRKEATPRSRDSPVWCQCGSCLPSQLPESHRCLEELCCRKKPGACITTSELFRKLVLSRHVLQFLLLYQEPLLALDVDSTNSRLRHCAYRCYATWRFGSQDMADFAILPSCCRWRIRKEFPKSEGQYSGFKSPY

Compound `O=C(N[C@H](CO)C1CCCCC1)[C@H]1CCOc2ncccc21` (mixture of isomers) [Example 8, (S)-3,4-Dihydro-2H-pyrano[2,3-b]pyridine-4-carboxylic acid ((S)-1-cyclohexyl-2-hydroxy-ethyl)-amide and (R)-3,4-Dihydro-2H-pyrano[2,3-b]pyridine-4-carboxylic acid ((S)-1-cyclohexyl-2-hydroxy-ethyl)-amide] has an IC50 of 127 nM.

`O=C(N[C@H](CO)c1ccc(Cl)cc1Cl)[C@H]1CCOc2ncccc21` (mixture of isomers) [Example 9, (S)-3,4-Dihydro-2H-pyrano[2,3-b]pyridine-4-carboxylic acid [(S)-1-(2,4-dichloro-phenyl)-2-hydroxy-ethyl]-amide and (R)-3,4-Dihydro-2H-pyrano[2,3-b]pyridine-4-carboxylic acid [(S)-1-(2,4-dichloro-phenyl)-2-hydroxy-ethyl]-amide] gave an IC50 (HEK-293 cells expressing human recombinant P2X7 receptor, YO-PRO-1 fluorescence, ATP 250 μM, 90 minutes, highest concentration 10 μM) of 70.8 nM.

`O=C(NCc1ccc(Cl)cc1Cl)C1COc2ncccc21` (racemic) [Example 5, rac-2,3-Dihydro-furo[2,3-b]pyridine-3-carboxylic acid 2,4-dichloro-benzylamide] gave a pIC50 of 7.23.

Work on `O=C(NCC1(O)CCCCC1)C1CCOc2ncccc21` (racemic) [Example 10, rac-3,4-Dihydro-2H-pyrano[2,3-b]pyridine-4-carboxylic acid (1-hydroxy-cyclohexylmethyl)-amide] yielded a pIC50 of 5.50.

`Cc1cc(Cl)cc(Cl)c1CNC(=O)C1(F)COc2ncccc21` (racemic) [Example 11, rac-3-Fluoro-2,3-dihydro-furo[2,3-b]pyridine-3-carboxylic acid 2,4-dichloro-6-methyl-benzylamide] showed a pIC50 of 8.32.

With `Cc1cc(Cl)cc(Cl)c1CNC(=O)C1(F)CCOc2ncccc21` (racemic) [Example 12, rac-4-Fluoro-3,4-dihydro-2H-pyrano[2,3-b]pyridine-4-carboxylic acid 2,4-dichloro-6-methyl-benzylamide] the pIC50 was 8.51.

`O=C(NCc1c(F)cc(Cl)cc1Cl)C1COc2ncccc21` (racemic) [Example 15, rac-2,3-Dihydro-furo[2,3-b]pyridine-3-carboxylic acid 2,4-dichloro-6-fluoro-benzylamide] was tested, and the pIC50 was 7.18.

`O=C(NCc1cccc(C(F)(F)F)c1Cl)C1COc2ncccc21` (racemic) [Example 16, rac-2,3-Dihydro-furo[2,3-b]pyridine-3-carboxylic acid 2-chloro-3-trifluoromethyl-benzylamide] was tested, and the pIC50 was 7.90.

For `O=C(NCc1cccc(Cl)c1Cl)C1(F)COc2ncccc21` (racemic) [Example 20, rac-3-Fluoro-2,3-dihydro-furo[2,3-b]pyridine-3-carboxylic acid 2,3-dichloro-benzylamide], the pIC50 was 7.17.

For `O=C(NCc1c(Cl)cc(Cl)cc1C1CC1)C1COc2ncccc21` (racemic) [Example 21, rac-2,3-Dihydro-furo[2,3-b]pyridine-3-carboxylic acid 2,4-dichloro-6-cyclopropyl-benzylamide], the pIC50 was 7.89.

Compound `CCc1cc(Cl)cc(Cl)c1CNC(=O)C1COc2ncccc21` (racemic) [Example 22, rac-2,3-Dihydro-furo[2,3-b]pyridine-3-carboxylic acid 2,4-dichloro-6-ethyl-benzylamide] has a pIC50 of 8.82.

`C=Cc1cc(Cl)cc(Cl)c1CNC(=O)C1COc2ncccc21` (racemic) [Example 23, rac-2,3-Dihydro-furo[2,3-b]pyridine-3-carboxylic acid 2,4-dichloro-6-vinyl-benzylamide] gave a pIC50 of 7.91.

`COc1cc(Cl)cc(Cl)c1CNC(=O)C1COc2ncccc21` (racemic) [Example 26, rac-2,3-Dihydro-furo[2,3-b]pyridine-3-carboxylic acid 2,4-dichloro-6-methoxy-benzylamide] showed a pIC50 of 7.59.

With `Cc1c(Cl)cccc1CNC(=O)C1CCOc2ncccc21` (racemic) [Example 31, rac-3,4-Dihydro-2H-pyrano[2,3-b]pyridine-4-carboxylic acid 3-chloro-2-methyl-benzylamide] the pIC50 was 7.80.

`O=C(NCc1ccc(F)cc1Cl)C1CCOc2ncccc21` (racemic) [Example 32, rac-3,4-Dihydro-2H-pyrano[2,3-b]pyridine-4-carboxylic acid 2-chloro-4-fluoro-benzylamide] gave a pIC50 of 7.60.

`O=C(NCc1ccc(Oc2ccccc2)cc1)C1CCOc2ncccc21` (racemic) [Example 33, rac-3,4-Dihydro-2H-pyrano[2,3-b]pyridine-4-carboxylic acid 4-phenoxy-benzylamide] gave a pIC50 of 6.59.

`O=C(NCc1cccc(Cl)c1Cl)C1CCOc2ncccc21` (racemic) [Example 34, rac-3,4-Dihydro-2H-pyrano[2,3-b]pyridine-4-carboxylic acid 2,3-dichloro-benzylamide] was tested, and the pIC50 was 7.97.

With `O=C(NCc1ccc(Cl)cc1)C1CCOc2ncccc21` (racemic) [Example 35, rac-3,4-Dihydro-2H-pyrano[2,3-b]pyridine-4-carboxylic acid 4-chloro-benzylamide] the pIC50 was 6.32.

`O=C(NCc1ccc(C(F)(F)F)cc1)C1CCOc2ncccc21` (racemic) [Example 36, rac-3,4-Dihydro-2H-pyrano[2,3-b]pyridine-4-carboxylic acid 4-trifluoromethyl-benzylamide] gave a pIC50 of 6.48.

Compound `O=C(NCCc1ccc(Cl)cc1Cl)C1CCOc2ncccc21` (racemic) [Example 38, rac-3,4-Dihydro-2H-pyrano[2,3-b]pyridine-4-carboxylic acid [2-(2,4-dichloro-phenyl)-ethyl]-amide] has a pIC50 of 7.17.

`O=C(NCc1ccc(Cl)cc1Cl)C1CCOc2ncccc21` (racemic) [Example 39, rac-3,4-Dihydro-2H-pyrano[2,3-b]pyridine-4-carboxylic acid 2,4-dichloro-benzylamide] was tested, and the pIC50 was 7.93.

With `O=C(NCc1cccc(C(F)(F)F)c1Cl)C1CCOc2ncccc21` (racemic) [Example 40, rac-3,4-Dihydro-2H-pyrano[2,3-b]pyridine-4-carboxylic acid 2-chloro-3-trifluoromethyl-benzylamide] the pIC50 was 8.57.

For `Cc1cc(Cl)cc(Cl)c1CNC(=O)C1CCOc2c1ccc[n+]2[O-]` (racemic) [Example 41, rac-8-Oxy-3,4-dihydro-2H-pyrano[2,3-b]pyridine-4-carboxylic acid 2,4-dichloro-6-methyl-benzylamide], the IC50 was 16.3 nM.

`Cc1c(Cl)cccc1CNC(=O)C1COc2ncccc21` (racemic) [Example 42, rac-2,3-Dihydro-furo[2,3-b]pyridine-3-carboxylic acid 3-chloro-2-methyl-benzylamide] was tested, and the pIC50 was 7.33.

`O=C(NCc1ccc(F)cc1Cl)C1COc2ncccc21` (racemic) [Example 43, rac-2,3-Dihydro-furo[2,3-b]pyridine-3-carboxylic acid 2-chloro-4-fluoro-benzylamide] gave a pIC50 of 7.06.

With `O=C(NCc1ccc(Oc2ccccc2)cc1)C1COc2ncccc21` (racemic) [Example 44, rac-2,3-Dihydro-furo[2,3-b]pyridine-3-carboxylic acid 4-phenoxy-benzylamide] the pIC50 was 5.95.

`O=C(NCc1cccc(Cl)c1Cl)C1COc2ncccc21` (racemic) [Example 45, rac-2,3-Dihydro-furo[2,3-b]pyridine-3-carboxylic acid 2,3-dichloro-benzylamide] showed a pIC50 of 7.43.

Work on `O=C(NCc1ccc(Cl)cc1)C1COc2ncccc21` (racemic) [Example 46, rac-2,3-Dihydro-furo[2,3-b]pyridine-3-carboxylic acid 4-chloro-benzylamide] yielded a pIC50 of 6.10.

In the case of `CN(Cc1ccc(Cl)cc1)C(=O)C1COc2ncccc21` (racemic) [Example 48, rac-2,3-Dihydro-furo[2,3-b]pyridine-3-carboxylic acid (4-chloro-benzyl)-methyl-amide], the pIC50 was 5.96.

`O=C(NCCc1ccc(Cl)cc1Cl)C1COc2ncccc21` (racemic) [Example 49, rac-2,3-Dihydro-furo[2,3-b]pyridine-3-carboxylic acid [2-(2,4-dichloro-phenyl)-ethyl]-amide] showed a pIC50 of 6.80.

For `O=C(NCc1c(Cl)cc(Cl)cc1OCCO)C1COc2ncccc21` (racemic) [Example 50, rac-2,3-Dihydro-furo[2,3-b]pyridine-3-carboxylic acid 2,4-dichloro-6-(2-hydroxy-ethoxy)-benzylamide], the pIC50 was 7.26.

Work on `O=C(NCc1c(Cl)cc(Cl)cc1CO)C1CCOc2ncccc21` (racemic) [Example 51, rac-3,4-Dihydro-2H-pyrano[2,3-b]pyridine-4-carboxylic acid 2,4-dichloro-6-hydroxymethyl-benzylamide] yielded a pIC50 of 8.25.

Compound `O=C(NCc1ccc(OC(F)(F)F)c(F)c1)C1CCOc2ncccc21` (racemic) [Example 53, rac-3,4-Dihydro-2H-pyrano[2,3-b]pyridine-4-carboxylic acid 3-fluoro-4-trifluoromethoxy-benzylamide] has a pIC50 of 5.93.

With `O=C(NCC1(c2ccccc2)CCCCC1)C1CCOc2ncccc21` (racemic) [Example 54, rac-3,4-Dihydro-2H-pyrano[2,3-b]pyridine-4-carboxylic acid (1-phenyl-cyclohexylmethyl)-amide] the pIC50 was 7.59.

Compound `O=C(NCc1cccc(C(F)(F)F)c1Cl)C1(F)COc2ncccc21` (racemic) [Example 55, rac-3-Fluoro-2,3-dihydro-furo[2,3-b]pyridine-3-carboxylic acid 2-chloro-3-trifluoromethyl-benzylamide] has a pIC50 of 7.38.

`O=C(NC1(c2ccc(Cl)cc2Cl)CC1)C1CCOc2ncccc21` (racemic) [Example 58, rac-3,4-Dihydro-2H-pyrano[2,3-b]pyridine-4-carboxylic acid [1-(2,4-dichloro-phenyl)-cyclopropyl]-amide] gave a pIC50 of 5.57.

With `N#Cc1ccc(CNC(=O)C2COc3ncccc32)c(Cl)c1` (racemic) [Example 61, rac-2,3-Dihydro-furo[2,3-b]pyridine-3-carboxylic acid 2-chloro-4-cyano-benzylamide] the pIC50 was 6.41.

With `NC(=O)C1(NC(=O)C2COc3ncccc32)CCCC1` (racemic) [Example 63, rac-2,3-Dihydro-furo[2,3-b]pyridine-3-carboxylic acid (1-carbamoyl-cyclopentyl)-amide] the pIC50 was 5.41.
